Experimental data as given in patent US10233173B2, “Substituted 1,2,3-triazoles as NR2B-selective NMDA modulators” (JANSSEN PHARMACEUTICA NV, priority 2016, dated 2019).

Molecular target: human GluN1/GluN2B NMDA receptors (Homo sapiens, UniProt Q05586+Q13224)
Experiment: Cell-based calcium flux (FLIPR) assay on cloned human NR1/NR2B ion channels expressed in mammalian cells
Details: standard assay; glutamate at ~EC80; FLIPR calcium flux
Procedure, shortened: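 Calcium influx followed by FLIPR fluorescence after 5 min compound exposure and a further 5 min co-agonist challenge: 10 μM glycine with glutamate at ~EC80 (standard) or EC40 (HTS).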

human GluN1/GluN2B NMDA receptors, sequence (Q13224 27-1484, other chains not shown): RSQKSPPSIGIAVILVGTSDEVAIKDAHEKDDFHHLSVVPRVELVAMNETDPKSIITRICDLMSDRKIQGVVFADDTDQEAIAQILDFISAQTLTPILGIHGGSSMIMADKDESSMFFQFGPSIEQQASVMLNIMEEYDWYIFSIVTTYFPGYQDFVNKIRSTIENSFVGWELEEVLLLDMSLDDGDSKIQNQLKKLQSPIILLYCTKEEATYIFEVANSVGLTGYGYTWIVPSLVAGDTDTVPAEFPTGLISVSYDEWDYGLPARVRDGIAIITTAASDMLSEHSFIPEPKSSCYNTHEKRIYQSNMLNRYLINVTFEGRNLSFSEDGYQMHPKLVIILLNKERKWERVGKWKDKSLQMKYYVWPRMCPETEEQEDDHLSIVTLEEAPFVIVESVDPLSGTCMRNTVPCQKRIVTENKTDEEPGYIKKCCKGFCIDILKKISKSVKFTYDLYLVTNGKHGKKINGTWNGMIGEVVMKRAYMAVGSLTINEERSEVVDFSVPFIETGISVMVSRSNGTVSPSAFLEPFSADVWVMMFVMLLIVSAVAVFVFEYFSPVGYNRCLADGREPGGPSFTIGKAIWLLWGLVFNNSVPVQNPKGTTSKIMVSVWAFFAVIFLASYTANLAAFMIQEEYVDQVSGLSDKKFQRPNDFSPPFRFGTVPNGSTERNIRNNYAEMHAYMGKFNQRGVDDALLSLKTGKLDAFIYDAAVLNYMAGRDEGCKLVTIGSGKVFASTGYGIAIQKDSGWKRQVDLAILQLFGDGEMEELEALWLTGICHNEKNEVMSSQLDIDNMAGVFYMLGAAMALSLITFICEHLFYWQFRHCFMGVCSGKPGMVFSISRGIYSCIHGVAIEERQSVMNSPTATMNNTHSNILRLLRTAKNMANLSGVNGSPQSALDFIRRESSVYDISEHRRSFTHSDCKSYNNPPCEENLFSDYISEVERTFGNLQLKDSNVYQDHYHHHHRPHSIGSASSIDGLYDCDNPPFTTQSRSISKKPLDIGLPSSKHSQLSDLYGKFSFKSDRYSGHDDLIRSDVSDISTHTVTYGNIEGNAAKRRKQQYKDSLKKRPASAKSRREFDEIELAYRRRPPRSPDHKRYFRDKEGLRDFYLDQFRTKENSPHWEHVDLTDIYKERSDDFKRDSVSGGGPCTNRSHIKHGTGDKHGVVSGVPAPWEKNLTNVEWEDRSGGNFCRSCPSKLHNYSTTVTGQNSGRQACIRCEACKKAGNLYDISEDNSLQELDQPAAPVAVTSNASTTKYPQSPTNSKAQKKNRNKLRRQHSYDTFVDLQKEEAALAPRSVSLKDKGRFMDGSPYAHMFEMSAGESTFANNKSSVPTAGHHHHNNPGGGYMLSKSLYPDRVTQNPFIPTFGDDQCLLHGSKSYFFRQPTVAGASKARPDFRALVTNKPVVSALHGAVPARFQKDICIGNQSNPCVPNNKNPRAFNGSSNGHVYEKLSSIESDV

| SMILES | IC50 |
| --- | --- |
| Cc1nc(OCc2cn(-c3ccc(F)c(OC(F)F)c3)nn2)ncc1Cl [Example 513, 5-Chloro-2-[[1-[3-(difluoromethoxy)-4-fluoro-phenyl]triazol-4-yl]methoxy]-4-methyl-pyrimidine] | 0.004 µM |
| FC(F)c1cc(-n2cc(COc3nccc(N4CCCC4)n3)nn2)ccc1Cl [Example 634, 2-[[1-[4-Chloro-3-(difluoromethyl)phenyl]triazol-4-yl]methoxy]-4-pyrrolidin-1-yl-pyrimidine] | 0.012 µM |
| CC(F)(F)c1cc(-n2cc(COc3nccc(C(F)(F)F)n3)nn2)ccc1F [Example 564, 2-[[1-[3-(1,1-Difluoroethyl)-4-fluoro-phenyl]triazol-4-yl]methoxy]-4-(trifluoromethyl)pyrimidine] | 0.272 µM |
| COCc1ccnc(OCc2cn(-c3ccc(F)c(C(F)F)c3)nn2)n1 [Example 399, 2-[[1-[3-(Difluoromethyl)-4-fluoro-phenyl]triazol-4-yl]methoxy]-4-(methoxymethyl)pyrimidine] | 0.023 µM |
| Cc1cccc(-n2cc(COc3ncc(Cl)cn3)nn2)c1F [Example 468, 5-Chloro-2-[[1-(2-fluoro-3-methyl-phenyl)triazol-4-yl]methoxy]pyrimidine] | 1.25 µM |
| OCc1cnc(OCc2cn(-c3ccc(Cl)c(C(F)F)c3)nn2)nc1 [Example 624, [2-[[1-[4-Chloro-3-(difluoromethyl)phenyl]triazol-4-yl]methoxy]pyrimidin-5-yl]methanol] | 0.02 µM |
| CC(C)(O)c1cnc(OCc2cn(-c3cccc(Cl)c3F)nn2)nc1 [Example 615, 2-[2-[[1-(3-Chloro-2-fluoro-phenyl)triazol-4-yl]methoxy]pyrimidin-5-yl]propan-2-ol] | 4.66 µM |
| Fc1ccc(-n2cc(COc3nccc(C(F)F)n3)nn2)cc1C(F)(F)F [Example 440, 4-(Difluoromethyl)-2-[[1-[4-fluoro-3-(trifluoromethyl)phenyl]triazol-4-yl]methoxy]pyrimidine] | 0.098 µM |
| CC(F)(F)c1cc(-n2cc(COc3ncc(C(C)(O)C(F)(F)F)cn3)nn2)ccc1F (racemic) [Example 565, (R/S)-2-[2-[[1-[3-(1,1-Difluoroethyl)-4-fluoro-phenyl]triazol-4-yl]methoxy]pyrimidin-5-yl]-1,1,1-trifluoro-propan-2-ol] | 0.308 µM |
| Cc1cccc(-n2cc(COc3ncc(C(F)(F)F)cn3)nn2)c1F [Example 469, 2-[[1-(2-Fluoro-3-methyl-phenyl)triazol-4-yl]methoxy]-5-(trifluoromethyl)pyrimidine] | 1.06 µM |
| FC(F)(F)c1cnc(OCc2cn(-c3ccc(C(F)(F)F)s3)nn2)nc1 [Example 670, 5-(Trifluoromethyl)-2-((1-(5-(trifluoromethyl)thiophen-2-yl)-1H-1,2,3-triazol-4-yl)methoxy)pyrimidine] | 0.063 µM |
| COc1cnc(OCc2cn(-c3ccc(F)cc3C)nn2)nc1 [Example 488, 2-[[1-(4-Fluoro-2-methyl-phenyl)triazol-4-yl]methoxy]-5-methoxy-pyrimidine] | 2.65 µM |
| Cc1ccc(-n2cc(COc3ncc(Br)cn3)nn2)cc1OC(F)F [Example 525, 5-Bromo-2-[[1-[3-(difluoromethoxy)-4-methyl-phenyl]triazol-4-yl]methoxy]pyrimidine] | 0.04 µM |
| COCc1ccnc(OCc2cn(-c3ccc(C)c(OC(F)F)c3)nn2)n1 [Example 527, 2-[[1-[3-(Difluoromethoxy)-4-methyl-phenyl]triazol-4-yl]methoxy]-4-(methoxymethyl)pyrimidine] | 0.132 µM |
| Cc1cnc(OCc2cn(-c3cccc(C)c3F)nn2)nc1 [Example 467, 2-[[1-(2-Fluoro-3-methyl-phenyl)triazol-4-yl]methoxy]-5-methyl-pyrimidine] | 0.711 µM |

Same assay, conditions: standard assay; human GluN1/GluN2B, calcium flux (FLIPR), glutamate ~EC80

| SMILES | IC50 |
| --- | --- |
| Cc1ccc(OCc2cn(-c3ccc(F)c(C(F)F)c3)nn2)nc1 [Example 114, 2-[[1-[3-(Difluoromethyl)-4-fluoro-phenyl]triazol-4-yl]methoxy]-5-methyl-pyridine] | 0.021 µM |
| Fc1cnc(OCc2cn(-c3cccc(F)c3)nn2)nc1 [Example 229, 5-Fluoro-2-[[1-(3-fluorophenyl)triazol-4-yl]methoxy]pyrimidine] | 2.98 µM |
| FCCOc1cnc(OCc2cn(-c3ccc(Cl)c(OC(F)F)c3)nn2)nc1 [Example 192, 2-[[1-[4-Chloro-3-(difluoromethoxy)phenyl]triazol-4-yl]methoxy]-5-(2-fluoroethoxy)pyrimidine] | 0.03 µM |
| Cc1cnc(NCc2cn(-c3ccc(F)c(C(F)F)c3)nn2)nc1 [Example 211, N-[[1-[3-(Difluoromethyl)-4-fluoro-phenyl]triazol-4-yl]methyl]-5-methyl-pyrimidin-2-amine] | 0.049 µM |
| CC(=O)c1cnc(OCc2cn(-c3cccc(C)c3)nn2)nc1 [Example 255, 1-[2-[[1-(m-Tolyl)triazol-4-yl]methoxy]pyrimidin-5-yl]ethanone] | 0.224 µM |
| Fc1ccnc(OCc2cn(-c3ccc(Cl)c(OC(F)F)c3)nn2)n1 [Example 191, 2-[[1-[4-Chloro-3-(difluoromethoxy)phenyl]triazol-4-yl]methoxy]-4-fluoro-pyrimidine] | 0.023 µM |
| CC(F)(F)c1cccc(-n2cc(COc3ncc(Cl)cn3)nn2)c1 [Example 294, 5-Chloro-2-[[1-[3-(1,1-difluoroethyl)phenyl]triazol-4-yl]methoxy]pyrimidine] | 0.003 µM |
| Nc1ccnc(OCc2cn(-c3cccc(OC(F)(F)F)c3)nn2)n1 [Example 353, 2-[[1-[3-(Trifluoromethoxy)phenyl]triazol-4-yl]methoxy]pyrimidin-4-amine] | 0.525 µM |
| COc1cnc(OCc2cn(-c3cccc(OC(F)F)c3)nn2)nc1 [Example 325, 2-[[1-[3-(Difluoromethoxy)phenyl]triazol-4-yl]methoxy]-5-methoxy-pyrimidine] | 0.027 µM |
| Cc1c(F)ccc(-n2cc(COc3ncc(Cl)cn3)nn2)c1F [Example 37, 5-Chloro-2-[[1-(2,4-difluoro-3-methyl-phenyl)triazol-4-yl]methoxy]pyrimidine] | 0.053 µM |
| Cc1cccc(-n2cc(COc3ncc(C)c(C)n3)nn2)c1 [Example 251, 4,5-Dimethyl-2-[[1-(m-tolyl)triazol-4-yl]methoxy]pyrimidine] | 0.002 µM |
| Fc1ccc(-n2cc(COc3ccc(C(F)(F)F)cn3)nn2)cc1C(F)F [Example 65, 2-[[1-[3-(Difluoromethyl)-4-fluoro-phenyl]triazol-4-yl]methoxy]-5-(trifluoromethyl)pyridine] | 0.056 µM |
| CCc1cnc(OCc2cn(-c3cccc(F)c3)nn2)nc1 [Example 233, 5-Ethyl-2-[[1-(3-fluorophenyl)triazol-4-yl]methoxy]pyrimidine] | 0.075 µM |
| Cc1nc(OCc2cn(-c3ccc4c(c3)CCC4)nn2)ncc1Cl [Example 371, 5-Chloro-2-[(1-indan-5-yltriazol-4-yl)methoxy]-4-methyl-pyrimidine] | 0.039 µM |
| CC(F)(F)c1cccc(-n2cc(COc3nccc(N)n3)nn2)c1 [Example 316, 2-[[1-[3-(1,1-Difluoroethyl)phenyl]triazol-4-yl]methoxy]pyrimidin-4-amine] | 0.183 µM |
| COCc1ccnc(OCc2cn(-c3ccc(Cl)c(OC(F)F)c3)nn2)n1 [Example 384, 2-[[1-[4-Chloro-3-(difluoromethoxy)phenyl]triazol-4-yl]methoxy]-4-(methoxymethyl)pyrimidine] | 0.018 µM |
| Cc1cnc(OC(C)c2cn(-c3ccc(Cl)c(OC(F)F)c3)nn2)nc1 (single isomer, unassigned) [Example 58, (S*)-2-[1-[1-[4-Chloro-3-(difluoromethoxy)phenyl]triazol-4-yl]ethoxy]-5-methyl-pyrimidine] | 0.007 µM |
| CC(Oc1ncccn1)c1cn(-c2ccc(Cl)c(OC(F)F)c2)nn1 (single isomer, unassigned) [Example 54, (R*)-2-[1-[1-[4-Chloro-3-(difluoromethoxy)phenyl]triazol-4-yl]ethoxy]pyrimidine] | 4.64 µM |
| CNC(=O)c1ccnc(OCc2cn(-c3ccc(F)c(C(F)F)c3)nn2)n1 [Example 162, 2-[[1-[3-(Difluoromethyl)-4-fluoro-phenyl]triazol-4-yl]methoxy]-N-methyl-pyrimidine-4-carboxamide] | > 2.99 µM |
| CCc1cnc(OCc2cn(-c3ccc(F)c(C(F)(F)F)c3)nn2)nc1 [Example 72, 5-Ethyl-2-[[1-[4-fluoro-3-(trifluoromethyl)phenyl]triazol-4-yl]methoxy]pyrimidine] | 0.01 µM |
| Cc1cnc(OC(C)c2cn(-c3ccc(Cl)c(OC(F)F)c3)nn2)nc1 (single isomer, unassigned) [Example 57, (R*)-2-[1-[1-[4-Chloro-3-(difluoromethoxy)phenyl]triazol-4-yl]ethoxy]-5-methyl-pyrimidine] | 0.338 µM |
| FC(F)c1cccc(-n2cc(CNc3ncc(Cl)cn3)nn2)c1 [Example 153, 5-Chloro-N-[[1-[3-(difluoromethyl)phenyl]triazol-4-yl]methyl]pyrimidin-2-amine] | 0.216 µM |
| Fc1cccc(-n2cc(COc3ncc(Cl)cn3)nn2)c1 [Example 231, 5-Chloro-2-[[1-(3-fluorophenyl)triazol-4-yl]methoxy]pyrimidine] | 0.389 µM |
| COc1cnc(O[C@@H](C)c2cn(-c3ccc(Cl)c(OC(F)F)c3)nn2)nc1 [Example 381, 2-[(1S)-1-[1-[4-Chloro-3-(difluoromethoxy)phenyl]triazol-4-yl]ethoxy]-5-methoxy-pyrimidine] | 0.196 µM |
| Fc1ccc(-n2cc(COc3ccccn3)nn2)cc1C(F)F [Example 111, 2-[[1-[3-(Difluoromethyl)-4-fluoro-phenyl]triazol-4-yl]methoxy]pyridine] | 0.684 µM |
| COc1cnc(OCc2cn(-c3ccc(F)c(CCCF)c3)nn2)nc1 [Example 194, 2-[[1-[4-Fluoro-3-(3-fluoropropyl)phenyl]triazol-4-yl]methoxy]-5-methoxy-pyrimidine] | 0.061 µM |
| Fc1cnc(OCc2cn(-c3cccc(OC(F)(F)F)c3)nn2)nc1 [Example 348, 5-Fluoro-2-[[1-[3-(trifluoromethoxy)phenyl]triazol-4-yl]methoxy]pyrimidine] | 0.447 µM |
